# Experimental data reported in patent publication US10654834B2 (Venenum Biodesign, LLC, priority 2016, dated 2020).
# How the values were obtained:
# human TGR5 receptor = target: T1, human TGR5 receptor (Homo sapiens, UniProt Q8TDU6); experiment: Human TGR5 cAMP production assay (hTGR5-CHO cells, DiscoveRx cAMP XS+ kit); assay type: cell-based; settings: luminescent cAMP assay, read-out: Human TGR5 Lum. cAMP Activity (EC50)
# T1 construct: host or cells: CHO-K1 (hTGR5-CHO)
# T1 sequence (Q8TDU6 1-330): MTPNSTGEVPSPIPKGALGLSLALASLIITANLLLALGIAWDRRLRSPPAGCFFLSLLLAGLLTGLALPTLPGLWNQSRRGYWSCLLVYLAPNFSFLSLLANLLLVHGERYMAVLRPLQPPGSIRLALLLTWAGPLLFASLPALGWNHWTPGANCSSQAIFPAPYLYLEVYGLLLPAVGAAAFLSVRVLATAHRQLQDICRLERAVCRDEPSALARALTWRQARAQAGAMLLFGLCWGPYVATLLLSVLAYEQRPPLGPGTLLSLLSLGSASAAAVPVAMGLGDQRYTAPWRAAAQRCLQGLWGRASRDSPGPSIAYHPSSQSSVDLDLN
# Outline: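 EC50 values come from luminescent enzyme-complementation cAMP detection, read after overnight incubation. Beforehand, hTGR5-expressing CHO-K1 cells with IBMX and anti-cAMP antibody were exposed 1 h at room temperature to serially diluted (half-log) compounds.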
# mouse TGR5 receptor = target: T2, mouse TGR5 receptor (Mus musculus, UniProt Q80SS6); experiment: Mouse TGR5 HTRF cAMP production assay (HEK293-EBNA cells, Cisbio cAMP HiRange kit); assay type: cell-based; settings: HEK293-EBNA cells overexpressing mouse TGR5, HTRF cAMP assay
# T2 construct: host or cells: HEK293-EBNA (293 c18, ATCC CRL10852)
# T2 sequence (Q80SS6 1-329): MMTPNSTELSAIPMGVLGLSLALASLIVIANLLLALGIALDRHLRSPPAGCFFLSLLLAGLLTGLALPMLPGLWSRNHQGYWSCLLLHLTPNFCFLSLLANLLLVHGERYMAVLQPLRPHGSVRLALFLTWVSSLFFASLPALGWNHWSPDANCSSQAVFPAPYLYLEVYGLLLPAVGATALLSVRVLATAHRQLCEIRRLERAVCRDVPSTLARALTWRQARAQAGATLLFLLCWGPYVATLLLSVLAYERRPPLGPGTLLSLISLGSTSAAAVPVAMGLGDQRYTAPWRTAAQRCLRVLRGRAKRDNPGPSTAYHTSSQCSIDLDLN
# Outline: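 cAMP accumulation was read by competitive HTRF after 1 h room-temperature compound treatment, with a further 1 h conjugate incubation. Cells were mouse TGR5-overexpressing HEK293-EBNA in serum-free DMEM plus 500 μM IBMX. Compounds ran as 12-point half-log series in duplicate, and EC50 values were reported.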
# [1] = Pharmacokinetic profile in mice after oral gavage; assay type: in vivo, mouse; settings: mouse; fasted male Hilltop mice, 10 mg/kg oral gavage, plasma; read-out: Cmax
# Protocol: Pharmacokinetic Profile in Mice
# In this series of studies, the pharmacokinetic profile characteristics of compounds of the present invention were evaluated. The plasma concentration levels of the compounds were monitored in the blood stream (i.e., plasma) after oral gavage using Cmax, and area under the curve (AUC).
# 8 week old male Hilltop mice were fasted overnight. Animals were randomized into groups (n=9) by body weight. Mice were dosed with 10 mg/kg compound (in 20% PEG400/80% 0.5% carboxymethylcellulose (medium viscosity)+0.25% Tween-80) at a volume of […] through oral gavage. Blood was collected via orbital bleeding at 0, 0.25, 0.5, 1, 2, and 4 h post-dose, with no one mouse having more than 3 blood draws. Blood was collected in EDTA coated tubes. Samples were stored at −20° C. until analysis.
# Quantitation of compound levels in plasma was accomplished by LC-MS/MS analysis. Standard curve and quality control samples were prepared in male CD-1 mouse plasma containing EDTA K^2+ as an anticoagulant at final concentrations ranging from 500 to 0.1 ng/mL. The plasma samples, calibration curve standards, and quality control samples were prepared in an identical method in a 96-well deep plate (1 mL) with a quenching solution (1:1 mixed acetonitrile:methanol containing the internal standard Reserpine @ 400 ng/mL). Low volume samples were supplemented with CD-1 mouse plasma. The plate was mixed on multi-tube vortexer for 1 min and centrifuged at 4000 rpm for 30 min at 4° C. (Sorvall® Super T21) before LC-MS/MS analysis. LC conditions were developed and optimized based on each compound as needed. The outlet of the column was coupled to AB Sciex 4000 QTrap Mass Spectrometer (AB Sciex, Brugg Switzerland). Detection was carried out using multiple reaction monitoring mode with positive-ion detection focusing. The pharmacokinetic parameters were derived from the plasma-time data and calculated using the standard non-compartmental method with WinNonlin (Pharsight, Mountain View, Calif.) or PK Solver (Comp. Meth. Prog. Biomed. (2010), 99, 306-314).
# Values reported are the mean plasma concentration of three mice. […]
SMILES,EC50 (human TGR5 receptor),EC50 (mouse TGR5 receptor),Cmax [1]
"CN(C(=O)NCCC(=O)O)c1ccc(-c2cc(N3CCC[C@H]3C(=O)NCCc3ccc(C#N)cc3)nc(C(F)(F)F)n2)cc1 [Compound 196, (S)-3-(3-(4-(6-(2-((4-cyanophenethyl)carbamoyl)pyrrolidin-1-yl)-2-(trifluoromethyl)pyrimidin-4-yl)phenyl)-3-methylureido)propanoic acid]",1000 to 30000 nM,100 to 999 nM,
"N#Cc1ccc(CCNC(=O)[C@@H]2CCCN(c3cc(N4CCN(CC(=O)O)CC4)nc(C(F)(F)F)n3)C2)cc1 [Compound 315, (R)-2-(4-(6-(3-((4-cyanophenethyl)carbamoyl)piperidin-1-yl)-2-(trifluoromethyl)pyrimidin-4-yl)piperazin-1-yl)acetic acid]",1000 to 30000 nM,< 100 nM,
"N=C(N)N1CCC(C2CCN(c3cc(N4CC[C@H]4C(=O)NCCc4ccc(C(F)(F)F)cc4)nc(C(F)(F)F)n3)CC2)CC1 [Compound 289, (S)-1-(6-(1′-carbamimidoyl-[4,4′-bipiperidin]-1-yl)-2-(trifluoromethyl)pyrimidin-4-yl)-N-(4-(trifluoromethyl)phenethyl)-azetidine-2-carboxamide]",< 100 nM,< 100 nM,
"N#Cc1ccc(CCNC(=O)[C@@H]2CCCN2c2cc(-c3ccc(CN4CCNCC4)cc3)nc(C(F)(F)F)n2)cc1 [Compound 187, (S)-N-(4-cyanophenethyl)-1-(6-(4-(piperazin-1-ylmethyl)phenyl)-2-(trifluoromethyl)pyrimidin-4-yl)pyrrolidine-2-carboxamide]",1000 to 30000 nM,100 to 999 nM,
"O=C(CCCC1CCN(c2cc(N3CCC[C@H]3C(=O)NCCc3cccc(-c4ccncc4)c3)nc(C(F)(F)F)n2)CC1)NCS(=O)(=O)O [Compound 354, (S)-(4-(1-(6-(2-((3-(pyridin-4-yl)phenethyl)carbamoyl)pyrrolidin-1-yl)-2-(trifluoromethyl)pyrimidin-4-yl)piperidin-4-yl)butanamido)methanesulfonic acid]",1000 to 30000 nM,100 to 999 nM,
CN(C)CCC1CCN(c2cc(N3CCC[C@H]3C(=O)NCCc3ccc(C#N)cc3)nc(C(F)(F)F)n2)CC1 [Compound 21],< 100 nM,100 to 999 nM,
Cc1nc(N2CCC(CO)CC2)cc(N2CCC[C@H]2C(=O)NCCc2ccc(C#N)cc2)n1 [Compound 36],100 to 999 nM,1000 to 30000 nM,
"COC(=O)[C@@H](N)CCCCNC(=O)CCCC1CCN(c2cc(N3CCC[C@H]3C(=O)NCCc3ccc(C#N)cc3)nc(C(F)(F)F)n2)CC1 [Compound 71, (S)-methyl 2-amino-6-(4-(1-(6-((S)-2-((4-cyanophenethyl)carbamoyl)-pyrrolidin-1-yl)-2-(trifluoromethyl)-pyrimidin-4-yl)piperidin-4-yl)butanamido)hexanoate]",< 100 nM,< 100 nM,
N#Cc1ccc(CCNC(=O)[C@@H]2CCCN2c2cc(N3CCN(CCO)CC3)nc(C(F)(F)F)n2)cc1 [Compound 31],100 to 999 nM,< 100 nM,
"CC(C)(C)OC(=O)CCNc1c(NCCC2CCN(c3cc(N4CC[C@H]4C(=O)NCCc4ccc(C#N)cc4)nc(C(F)(F)F)n3)CC2)c(=O)c1=O [Compound 300, (S)-tert-butyl 3-((2-((2-(1-(6-(2-((4-cyanophenethyl)carbamoyl)azetidin-1-yl)-2-(trifluoromethyl)pyrimidin-4-yl)piperidin-4-yl)ethyl)amino)-3,4-dioxocyclobut-1-en-1-yl)amino)propanoate]",100 to 999 nM,< 100 nM,
"N#Cc1ccc(CCNC(=O)[C@@H]2CCCN2c2cc(-c3cccc(CCC(=O)NCCS(=O)(=O)O)c3)nc(C(F)(F)F)n2)cc1 [Compound 190, (S)-2-(3-(3-(6-(2-((4-cyanophenethyl)-carbamoyl)pyrrolidin-1-yl)-2-(trifluoromethyl)pyrimidin-4-yl)phenyl)-propanamido)ethanesulfonic acid]",1000 to 30000 nM,< 100 nM,
"CN(CC#CCOC1CCN(c2cc(N3CCC[C@H]3C(=O)NCCc3ccc(C#N)cc3)nc(C(F)(F)F)n2)CC1)CCS(=O)(=O)O [Compound 135, (S)-2-((4-((1-(6-(2-((4-cyanophenethyl)carbamoyl)pyrrolidin-1-yl)-2-(trifluoromethyl)pyrimidin-4-yl)piperidin-4-yl)oxy)but-2-yn-1-yl)(methyl)amino)ethanesulfonic acid]",100 to 999 nM,< 100 nM,

# Results, then the compound that gave them:
EC50 (human TGR5 receptor),EC50 (mouse TGR5 receptor),Cmax [1],SMILES
< 100 nM,< 100 nM,7.9 ng/mL,"N#Cc1ccc(CCNC(=O)[C@@H]2CCCN2c2cc(N3CCC(CCCNC(=O)NCS(=O)(=O)O)CC3)nc(C(F)(F)F)n2)cc1 [Compound 118, (S)-(3-(3-(1-(6-(2-((4-cyanophenethyl)carbamoyl)pyrrolidin-1-yl)-2-(trifluoromethyl)pyrimidin-4-yl)piperidin-4-yl)propyl)ureido)methanesulfonic acid]"
< 100 nM,< 100 nM,5.3 ng/mL,O=C(CCCC1CCN(c2cc(N3CCC[C@H]3C(=O)NCCc3ccc(C(F)(F)F)cc3)nc(C(F)(F)F)n2)CC1)NCCNc1cc(N(CCO)CCO)ncn1 [Compound 111]
< 100 nM,< 100 nM,,"N#Cc1ccc(CCNC(=O)[C@@H]2CCCN2c2cc(N3CCC(CCN4C(=O)N[C@@H](CS(=O)(=O)O)C4=O)CC3)nc(C(F)(F)F)n2)cc1 [Compound 122, ((R)-1-(2-(1-(6-((S)-2-((4-cyanophenethyl)carbamoyl)pyrrolidin-1-yl)-2-(trifluoromethyl)pyrimidin-4-yl)piperidin-4-yl)ethyl)-2,5-dioxoimidazolidin-4-yl)methanesulfonic acid]"
< 100 nM,< 100 nM,,"N#Cc1ccc(CCNC(=O)[C@@H]2CCN2c2cc(N3CCC(CCNC(=O)NCCOCCNC(=O)C(F)(F)F)CC3)nc(C(F)(F)F)n2)cc1 [Compound 357, (S)-N-(4-cyanophenethyl)-1-(6-(4-(13,13,13-trifluoro-4,12-dioxo-8-oxa-3,5,11-triazatridecyl)piperidin-1-yl)-2-(trifluoromethyl)pyrimidin-4-yl)azetidine-2-carboxamide]"
< 100 nM,< 100 nM,,"CN(CCS(=O)(=O)O)c1c(NCCC2CCN(c3cc(N4CC[C@H]4C(=O)NCCc4ccc(C#N)cc4)nc(C(F)(F)F)n3)CC2)c(=O)c1=O [Compound 299, (S)-2-((2-((2-(1-(6-(2-((4-cyanophenethyl)carbamoyl)azetidin-1-yl)-2-(trifluoromethyl)pyrimidin-4-yl)piperidin-4-yl)ethyl)amino)-3,4-dioxocyclobut-1-en-1-yl)(methyl)amino)ethanesulfonic acid]"
< 100 nM,< 100 nM,,"COC(=O)[C@H](CCC[N+](C)(C)C)NC(=O)CCCC1CCN(c2cc(N3CCC[C@H]3C(=O)NCCc3ccc(C#N)cc3)nc(C(F)(F)F)n2)CC1 [Compound 65, (S)-4-(4-(1-(6-((S)-2-((4-cyanophenethyl)carbamoyl)pyrrolidin-1-yl)-2-(trifluoromethyl)pyrimidin-4-yl)piperidin-4-yl)butanamido)-5-methoxy-N,N,N-trimethyl-5-oxopentan-1-aminium]"
